From patent US8048903B2, “5-iodotetrazoles” (LANXESS Deutschland GmbH, priority 2004, dated 2011) come the findings set out here.

By melting point is commonly meant the temperature of the solid-liquid transition.

One data set deals with Aspergillus niger. Briefly: Minimum inhibitory concentration (MIC) against fungi on malt extract agar. It is filed as cell-based. Particulars: 336 h, 2 weeks at 28° C., 60 to 70% relative atmospheric humidity, read-out: Minimum inhibitory concentrations Aspergillus niger. As for the experimental part:
(§1) In each case, the active compounds according to the invention, in concentrations of from 0.1 mg/l to 5000 mg/l, were added to an agar which had been prepared using malt extracts. The MIC was determined after 2 weeks of storage at 28° C. and 60 to 70% relative atmospheric humidity. The MIC is the lowest concentration of active compound at which there is no colonization by the microbial species used.

The test system of a further data set is Chaetomium globosum. The description is as above. It is filed as cell-based. Particulars: 336 h, 2 weeks at 28° C., 60 to 70% relative atmospheric humidity, read-out: Minimum inhibitory concentrations Chaetomium globosum. As for the experimental part:
as §1

The test system of another data set is Penicillium brevicaule. The data set is described as above. It is filed as cell-based. Particulars: 336 h, 2 weeks at 28° C., 60 to 70% relative atmospheric humidity, read-out: Minimum inhibitory concentrations Penicillium brevicaule. As for the experimental part: as §1
The subject of data set [1] is mold fungi (Alternaria tenuis, Aspergillus flavus, Aspergillus niger, Aspergillus ustus, Cindosporum herbarum, Paecilomyces variotii, Penicillium citrium …). Briefly: Test of dispersion coatings for resistance to mold. It is filed as cell-based. Particulars: coatings according to recipe A containing 1.0% (based on solids) of compound; even after rinsing out and wind tunnel exposure; 2-3 weeks, 29±1° C., 80-90% rel. humidity. The procedure: To test dispersion coatings for resistance to mold, the following procedure was adopted:
The paint to be tested was applied to both sides of a suitable base. To obtain results which are close to practice, some of the test specimens were rinsed out with running water (24 h, 20° C.) before the test for mold resistance; others were treated with a current of warm fresh air (7 days, 40° C.).
The samples prepared in this way were then placed on an agar nutrient medium, and both samples and nutrient medium were contaminated with fungal spores. After 2-3 weeks storage (29±1° C., 80-90% rel. atmospheric humidity), the samples were compared.
The coating is considered to be permanently mold-resistant if the sample remains free from fungus or at most a slight border infestation can be detected.
For the contamination, fungal spores of the following mold fungi were used, which are known as paint destroyers or are frequently encountered on coatings: […]

Values after ≈ are worked out from the molar mass of the structure shown. Where only a bound is given, the exact number is not on record here.

The compound `CCCCn1nnnc1I` [Example 1, 5-Iodo-1-butyltetrazole] yielded a melting point of 31 to 37 °C. Moreover, the MIC with Aspergillus niger was 5 µg/mL (≈ 19.8 µM). Besides, in the data set on Chaetomium globosum, the MIC was 5 µg/mL (≈ 19.8 µM). Moreover, the MIC in the data set with Penicillium brevicaule was < 1 µg/mL.
Compound `Ic1nnnn1-c1ccccc1` [Example 2, 5-Iodo-1-phenyltetrazole] gave a melting point of 123 to 129 °C. Also, the MIC in the data set with Aspergillus niger is < 40 µg/mL. In addition, the MIC with Chaetomium globosum was < 40 µg/mL. Moreover, the MIC in the data set with Penicillium brevicaule was < 40 µg/mL. Moreover, in data set [1], the “Mold resistance of coating” value is “mold resistant”.
